Where a name gives a salt, the structure may show the parent alone.
Legend:
NaV1.5 = NaV1.5 (Homo sapiens (Human), UniProt Q14524); experiment: Sodium Influx Assay (Flux), NaV1.5; conditions: read-out: Flux NaV1.5 IC50; Trex HEK293 cells, ANG2 dye; arithmetic mean
NaV1.1 [1] = molecular target: T1, NaV1.1 (Homo sapiens (Human), UniProt P35498); experiment: Electrophysiological Assay (EP), patch voltage clamp, NaV1.1; assay type: cell-based; conditions: HEK-293 cells, whole-cell patch clamp, inactivated state; arithmetic mean
Description: (§1) Sodium currents were measured using the patch clamp technique in the whole-cell configuration using either a PatchXpress automated voltage clamp or manually using an Axopatch 200B (Axon Instruments) or Model 2400 (A-M systems) amplifier.
In some studies, the external sodium was reduced by equimolar replacement with choline. […] All recordings were performed at ambient temperature in a bath chamber with a volume of 150 μL. Control sodium currents were measured in 0.5% DMSO. Controls and representative compounds of the invention were applied to the recording chamber through a 4-pinch or 8-pinch valve bath perfusion system manufactured by ALA Scientific Instruments.
Series resistance compensation was applied (60-80%). […] All statistics in this study are given as mean±SD.
The membrane potential was maintained at a voltage where inactivation of the channel is complete. The voltage is then stepped back to a very negative (Vhold=−150 mV) voltage for 20 ms and then a test pulse is applied to quantify the compound block. […] The percent decrease in sodium current following wash-on of compound was taken as the percent block of sodium channels.

NaV1.6 [2] = molecular target: T2, NaV1.6 (Homo sapiens (Human), UniProt Q9UQD0); experiment: Sodium Influx Assay (Flux), NaV1.6; conditions: read-out: Flux NaV1.6 IC50; Trex HEK293 cells, ANG2 dye; arithmetic mean
T2 sequence (Q9UQD0 whole entry): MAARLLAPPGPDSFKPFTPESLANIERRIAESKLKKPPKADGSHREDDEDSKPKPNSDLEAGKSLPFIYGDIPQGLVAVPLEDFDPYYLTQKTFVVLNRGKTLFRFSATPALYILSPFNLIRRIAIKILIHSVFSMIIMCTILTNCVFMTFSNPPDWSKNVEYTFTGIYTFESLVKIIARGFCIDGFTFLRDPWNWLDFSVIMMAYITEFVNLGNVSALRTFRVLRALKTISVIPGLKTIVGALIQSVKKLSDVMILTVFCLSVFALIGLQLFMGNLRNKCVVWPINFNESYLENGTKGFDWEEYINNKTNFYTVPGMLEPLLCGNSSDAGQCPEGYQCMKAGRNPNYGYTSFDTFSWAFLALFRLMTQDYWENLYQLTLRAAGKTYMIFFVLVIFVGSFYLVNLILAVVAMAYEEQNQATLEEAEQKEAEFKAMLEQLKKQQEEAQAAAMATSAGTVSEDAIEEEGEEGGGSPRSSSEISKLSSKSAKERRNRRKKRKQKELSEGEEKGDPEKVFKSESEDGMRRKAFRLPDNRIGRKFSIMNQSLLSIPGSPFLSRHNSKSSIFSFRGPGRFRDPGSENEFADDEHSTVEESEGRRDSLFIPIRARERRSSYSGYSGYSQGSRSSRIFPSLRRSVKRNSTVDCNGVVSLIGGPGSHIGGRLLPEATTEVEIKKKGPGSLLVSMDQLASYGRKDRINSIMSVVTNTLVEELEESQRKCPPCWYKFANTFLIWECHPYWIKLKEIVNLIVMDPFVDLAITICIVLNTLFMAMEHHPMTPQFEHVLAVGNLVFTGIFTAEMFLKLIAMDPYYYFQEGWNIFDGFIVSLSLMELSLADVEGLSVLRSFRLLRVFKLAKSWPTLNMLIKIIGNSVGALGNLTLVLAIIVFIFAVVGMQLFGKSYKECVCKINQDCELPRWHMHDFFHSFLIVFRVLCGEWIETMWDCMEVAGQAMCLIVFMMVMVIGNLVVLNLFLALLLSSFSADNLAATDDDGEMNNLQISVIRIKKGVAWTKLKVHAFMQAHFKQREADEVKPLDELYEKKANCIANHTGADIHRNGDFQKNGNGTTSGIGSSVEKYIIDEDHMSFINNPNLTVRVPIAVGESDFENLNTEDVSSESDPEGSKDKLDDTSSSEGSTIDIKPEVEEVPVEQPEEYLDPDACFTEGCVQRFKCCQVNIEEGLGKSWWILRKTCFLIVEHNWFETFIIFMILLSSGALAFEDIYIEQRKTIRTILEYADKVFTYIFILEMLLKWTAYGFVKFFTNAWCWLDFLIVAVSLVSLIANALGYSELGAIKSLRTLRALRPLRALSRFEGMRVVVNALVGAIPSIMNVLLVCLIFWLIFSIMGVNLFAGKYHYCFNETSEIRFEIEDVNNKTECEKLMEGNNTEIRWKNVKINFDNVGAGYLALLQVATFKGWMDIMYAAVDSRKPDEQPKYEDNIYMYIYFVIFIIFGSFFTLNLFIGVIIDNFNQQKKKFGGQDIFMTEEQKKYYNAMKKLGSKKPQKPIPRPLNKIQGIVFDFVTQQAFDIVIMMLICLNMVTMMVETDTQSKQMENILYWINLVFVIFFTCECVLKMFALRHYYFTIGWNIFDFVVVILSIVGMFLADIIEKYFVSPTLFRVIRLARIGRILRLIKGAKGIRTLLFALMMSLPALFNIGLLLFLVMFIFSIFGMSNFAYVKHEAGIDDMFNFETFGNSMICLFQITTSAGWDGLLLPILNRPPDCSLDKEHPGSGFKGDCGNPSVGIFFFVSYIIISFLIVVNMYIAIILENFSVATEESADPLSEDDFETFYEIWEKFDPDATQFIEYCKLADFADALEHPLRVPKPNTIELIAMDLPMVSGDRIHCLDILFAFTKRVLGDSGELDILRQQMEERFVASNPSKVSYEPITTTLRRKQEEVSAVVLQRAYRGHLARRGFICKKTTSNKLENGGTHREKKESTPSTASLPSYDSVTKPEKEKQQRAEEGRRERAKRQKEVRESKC

NaV1.1 [3] = molecular target: T1, NaV1.1; experiment: Sodium Influx Assay (Flux), NaV1.1; assay type: cell-based; conditions: Trex HEK293 cells, ANG2 dye; arithmetic mean
NaV1.6 [4] = molecular target: T2, NaV1.6; experiment: Electrophysiological Assay (EP), patch voltage clamp, NaV1.6; assay type: cell-based; conditions: HEK-293 cells, whole-cell patch clamp, inactivated state; arithmetic mean
From the text: Patch voltage clamp electrophysiology allows for the direct measurement and quantification of block of voltage-gated sodium channels (Nay's), and allows the determination of the time-and voltage-dependence of block which has been interpreted as differential binding to the resting, open, and inactivated states of the sodium channel (Hille, B., Journal of General Physiology (1977), 69: 497-515).
NaV1.1, NaV1.5 and NaV1.6 cDNAs (NM_001165964 (SCN1A), NM_000335 (SCN5A) and NM_014191 (SCN8A), respectively) were stably expressed in HEK-293 cells.
as §1
The manual voltage clamp protocol was as follows: Borosilicate glass micropipettes were fire-polished to a tip diameter yielding a resistance of 2-4 Mohms in the working solutions. […] In some studies, the external sodium was reduced by equimolar replacement with choline. Osmolarity in the CsF internal and NaCl external solutions was adjusted to 300 mOsm/kg and 310 mOsm/kg with glucose, respectively. All recordings were performed at ambient temperature in a bath chamber with a volume of 150 μL. Control sodium currents were measured in 0.5% DMSO. Controls and representative compounds of the invention were applied to the recording chamber through a 4-pinch or 8-pinch valve bath perfusion system manufactured by ALA Scientific Instruments.
Currents were recorded at 40 kHz sampling frequency, filtered at […], and stored using a Digidata-1322A analogue/digital interface with the pClamp software (Axon Instruments). Series resistance compensation was applied (60-80%). […] All statistics in this study are given as mean±SD.
The membrane potential was maintained at a voltage where inactivation of the channel is complete. The voltage is then stepped back to a very negative (Vhold=−150 mV) voltage for 20 ms and then a test pulse is applied to quantify the compound block. The 20 ms brief repolarization was long enough for compound-free channels to completely recover from fast inactivation, but the compound-bound channels recovered more slowly such that negligible recovery could occur during this interval. The percent decrease in sodium current following wash-on of compound was taken as the percent block of sodium channels.

Sequence of NaV1.5 (Q14524 other isoform, or with tags, fused parts or gaps): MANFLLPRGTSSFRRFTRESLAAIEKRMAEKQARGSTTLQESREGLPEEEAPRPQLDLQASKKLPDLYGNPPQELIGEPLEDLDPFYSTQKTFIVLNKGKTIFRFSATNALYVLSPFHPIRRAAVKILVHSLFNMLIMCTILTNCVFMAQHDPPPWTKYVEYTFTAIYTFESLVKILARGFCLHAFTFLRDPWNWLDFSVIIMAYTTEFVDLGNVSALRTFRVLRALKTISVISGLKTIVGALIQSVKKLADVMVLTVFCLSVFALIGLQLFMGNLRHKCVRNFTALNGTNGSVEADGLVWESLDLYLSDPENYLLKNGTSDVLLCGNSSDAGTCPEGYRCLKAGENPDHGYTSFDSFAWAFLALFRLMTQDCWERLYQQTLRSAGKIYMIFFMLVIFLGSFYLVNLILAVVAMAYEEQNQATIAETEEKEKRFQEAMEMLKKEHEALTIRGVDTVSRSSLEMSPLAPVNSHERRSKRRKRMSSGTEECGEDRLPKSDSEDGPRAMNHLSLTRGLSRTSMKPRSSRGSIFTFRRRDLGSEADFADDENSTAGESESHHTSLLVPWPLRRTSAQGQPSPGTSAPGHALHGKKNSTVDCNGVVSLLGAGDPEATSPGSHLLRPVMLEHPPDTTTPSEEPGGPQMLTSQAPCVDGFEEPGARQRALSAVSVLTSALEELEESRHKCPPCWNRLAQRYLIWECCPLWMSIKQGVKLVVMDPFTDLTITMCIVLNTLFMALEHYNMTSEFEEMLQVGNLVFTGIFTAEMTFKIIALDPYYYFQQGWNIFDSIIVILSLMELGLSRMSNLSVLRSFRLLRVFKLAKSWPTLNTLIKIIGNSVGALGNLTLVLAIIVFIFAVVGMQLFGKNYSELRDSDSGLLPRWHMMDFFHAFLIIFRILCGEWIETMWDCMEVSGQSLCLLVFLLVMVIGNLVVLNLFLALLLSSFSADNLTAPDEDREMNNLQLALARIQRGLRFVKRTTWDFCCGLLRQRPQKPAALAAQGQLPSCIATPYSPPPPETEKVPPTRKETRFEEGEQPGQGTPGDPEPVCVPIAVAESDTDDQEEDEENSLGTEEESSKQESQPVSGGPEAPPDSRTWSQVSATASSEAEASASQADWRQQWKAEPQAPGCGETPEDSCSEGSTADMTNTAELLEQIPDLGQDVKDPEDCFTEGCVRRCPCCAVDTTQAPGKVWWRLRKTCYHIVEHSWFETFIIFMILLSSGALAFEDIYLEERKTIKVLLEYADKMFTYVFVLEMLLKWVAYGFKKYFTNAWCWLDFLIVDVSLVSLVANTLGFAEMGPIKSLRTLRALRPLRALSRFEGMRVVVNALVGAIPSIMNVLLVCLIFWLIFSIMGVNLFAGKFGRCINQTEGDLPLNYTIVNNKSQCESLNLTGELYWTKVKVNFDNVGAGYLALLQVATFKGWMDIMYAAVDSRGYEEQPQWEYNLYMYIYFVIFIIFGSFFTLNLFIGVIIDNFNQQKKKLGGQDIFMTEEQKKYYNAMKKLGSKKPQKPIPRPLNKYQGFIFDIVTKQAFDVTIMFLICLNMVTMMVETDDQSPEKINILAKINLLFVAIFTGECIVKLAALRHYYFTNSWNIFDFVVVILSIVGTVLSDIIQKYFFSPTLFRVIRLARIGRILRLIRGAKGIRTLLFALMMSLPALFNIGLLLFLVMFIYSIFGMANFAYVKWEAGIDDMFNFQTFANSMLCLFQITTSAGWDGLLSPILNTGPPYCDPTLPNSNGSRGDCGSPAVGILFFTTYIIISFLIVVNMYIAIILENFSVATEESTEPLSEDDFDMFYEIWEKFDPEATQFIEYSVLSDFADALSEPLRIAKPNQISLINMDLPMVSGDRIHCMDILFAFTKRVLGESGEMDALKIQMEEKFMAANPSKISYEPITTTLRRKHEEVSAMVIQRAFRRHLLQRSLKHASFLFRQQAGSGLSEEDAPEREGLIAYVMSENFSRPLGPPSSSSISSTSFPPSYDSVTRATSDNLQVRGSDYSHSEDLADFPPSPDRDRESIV

SMILES	IC50 (NaV1.5) [µM]	IC50 (NaV1.1 [1]) [µM]	IC50 (NaV1.6 [2]) [µM]	IC50 (NaV1.1 [3]) [µM]	IC50 (NaV1.6 [4]) [µM]
C[C@H](c1ccccc1)N1CCC(Oc2ccc(S(=O)(=O)Nc3cscn3)cc2Cl)CC1 [Example 57, (R)-3-chloro-4-((1-(1-phenylethyl)piperidin-4-yl)oxy)-N-(thiazol-4-yl)benzenesulfonamide 2,2,2-trifluoroacetate]	5.25	> 10	0.97	13.7	0.268
Cc1c(OC2CCN(Cc3ccccc3)CC2)cc(F)c(S(=O)(=O)Nc2cscn2)c1F [Example 106, 4-((1-benzylpiperidin-4-yl)oxy)-2,6-difluoro-3-methyl-N-(thiazol-4-yl)benzenesulfonamide formate]	20.6	> 10	0.099	23.2	0.034
CN(c1ccc(S(=O)(=O)Nc2cscn2)cc1Cl)[C@H]1CCN(Cc2ccccc2)C1 [Example 41, (S)-4-((1-benzylpyrrolidin-3-yl)(methyl)amino)-3-chloro-N-(thiazol-4-yl)benzenesulfonamide 2,2,2-trifluoroacetate]	9.01	> 10	1.04	6.64	0.748
CN(c1ccc(S(=O)(=O)Nc2cscn2)cc1Cl)[C@H]1CCN(C(C)(C)c2ccccc2)C1 [Example 62, (S)-3-chloro-4-(methyl(1-(2-phenylpropan-2-yl)pyrrolidin-3-yl)amino)-N-(thiazol-4-yl)benzenesulfonamide]	4.53	6.55	0.536	4.24	0.15
O=S(=O)(Nc1nccs1)c1ccc(O[C@@H]2C[C@H]3CC[C@@H](C2)N3Cc2ccccc2)c(Cl)c1 [Example 16, 4-(((1R,3s,5S)-8-benzyl-8-azabicyclo[3.2.1]octan-3-yl)oxy)-3-chloro-N-(thiazol-2-yl)benzenesulfonamide]	> 30	> 10	0.429	22.8	0.03
CN(c1ccc(S(=O)(=O)Nc2nccs2)cc1Cl)[C@H]1CCN(Cc2ccccc2)C1 [Example 80, (S)-4-((1-benzylpyrrolidin-3-yl)(methyl)amino)-3-chloro-N-(thiazol-2-yl)benzenesulfonamide]	29.1	> 10	0.378	12.2	0.124
O=S(=O)(Nc1nccs1)c1ccc(OC2CCN(Cc3cccc(C(F)F)c3)CC2)c(Cl)c1 [Example 11, 3-chloro-4-((1-(3-(difluoromethyl)benzyl)piperidin-4-yl)oxy)-N-(thiazol-2-yl)benzenesulfonamide]	7.58	7.21	0.253	8.12	0.082
CN(c1cc(F)c(S(=O)(=O)Nc2cscn2)cc1Cl)[C@H]1CCN([C@@H]2CCc3ccccc32)C1 [Example 246, 5-chloro-4-(((S)-1-((R)-2,3-dihydro-1H-inden-1-yl)pyrrolidin-3-yl)(methyl)amino)-2-fluoro-N-(thiazol-4-yl)benzenesulfonamide 2,2,2-trifluoroacetate]	18.7	> 10	0.629	8.51	1.03
O=S(=O)(Nc1nccs1)c1ccc(OC2CCN(Cc3ccccn3)CC2)c(Cl)c1 [Example 65, 3-chloro-4-((1-(pyridin-2-ylmethyl)piperidin-4-yl)oxy)-N-(thiazol-2-yl)benzenesulfonamide]	29.7	> 10	0.552	> 30	0.839
CCN(c1ccc(S(=O)(=O)Nc2ncns2)cc1Cl)[C@H]1CCN(Cc2ccccc2)C1 [Example 36, (S)-4-((1-benzylpyrrolidin-3-yl)(ethyl)amino)-3-chloro-N-(1,2,4-thiadiazol-5-yl)benzenesulfonamide]	> 30	> 10	0.615	> 30	0.685
CN(c1ccc(S(=O)(=O)Nc2ncns2)cc1Cl)[C@H]1CCN(Cc2cc(Cl)ccc2F)C1 [Example 33, (S)-3-chloro-4-((1-(5-chloro-2-fluorobenzyl)pyrrolidin-3-yl)(methyl)amino)-N-(1,2,4-thiadiazol-5-yl)benzenesulfonamide 2,2,2-trifluoroacetate]	7.79	> 10	0.041	5.11	0.07
CN(c1ccc(S(=O)(=O)Nc2ncns2)cc1Cl)[C@@H]1CCN(Cc2ccccc2)C1 [Example 68, (R)-4-((1-benzylpyrrolidin-3-yl)(methyl)amino)-3-chloro-N-(1,2,4-thiadiazol-5-yl)benzenesulfonamide 2,2,2-trifluoroacetate]	> 30	> 10	1.41	> 30	2.92
C[C@H](c1cc(Cl)ccc1F)N1CCC(Oc2ccc(S(=O)(=O)Nc3cscn3)cc2Cl)CC1 [Example 315, (R)-3-chloro-4-((1-(1-(5-chloro-2-fluorophenyl)ethyl)piperidin-4-yl)oxy)-N-(thiazol-4-yl)benzenesulfonamide]	6.38	4.25	1.07	5.62	0.377
CC(C)(c1ccccc1)N1CCC(Oc2ccc(S(=O)(=O)Nc3nccs3)cc2Cl)CC1 [Example 59, 3-chloro-4-((1-(2-phenylpropan-2-yl)piperidin-4-yl)oxy)-N-(thiazol-2-yl)benzenesulfonamide 2,2,2-trifluoroacetate]	7.44	9.91	0.255	7.44	0.092
Cc1c(N(C)[C@H]2CCN(Cc3ccccc3)C2)ccc(S(=O)(=O)Nc2cscn2)c1F [Example 321, (S)-4-((1-benzylpyrrolidin-3-yl)(methyl)amino)-2-fluoro-3-methyl-N-(thiazol-4-yl)benzenesulfonamide 2,2,2-trifluoroacetate]	21.4	> 10	0.354	12.3	0.137
C[C@]1(Nc2ccc(S(=O)(=O)Nc3cscn3)cc2Cl)CCN(Cc2ccccc2)C1 [Example 226, (S)-4-((1-benzyl-3-methylpyrrolidin-3-yl)amino)-3-chloro-N-(thiazol-4-yl)benzenesulfonamide formate]	9.04	> 10	2.43	11.5	3.08
CC[C@@H](c1ccccc1)N1CC[C@H](N(C)c2cc(F)c(S(=O)(=O)Nc3cscn3)cc2Cl)C1 [Example 242, 5-chloro-2-fluoro-4-(methyl((S)-1-((S)-1-phenylpropyl)pyrrolidin-3-yl)amino)-N-(thiazol-4-yl)benzenesulfonamide]	9.96	> 10	0.65	5.38	0.668
Cc1cccc(CN2CC[C@H](N(C)c3cc(F)c(S(=O)(=O)Nc4cscn4)cc3Cl)C2)n1 [Example 192, (S)-5-chloro-2-fluoro-4-(methyl(1-((6-methylpyridin-2-yl)methyl)pyrrolidin-3-yl)amino)-N-(thiazol-4-yl)benzene-sulfonamide]	> 30	> 10	0.857	> 30	0.37
C[C@H]1CN(Cc2ccccc2)C[C@@H]1Nc1ccc(S(=O)(=O)Nc2nccs2)cc1Cl (relative stereo) [Example 74, 4-((trans-1-benzyl-4-methylpyrrolidin-3-yl)amino)-3-chloro-N-(thiazol-2-yl)benzenesulfonamide]	8.67	1.03	0.167	1.54	0.025

Source: patent US10246453B2, “Benzenesulfonamide compounds and their use as therapeutic agents” (Xenon Pharmaceuticals Inc., priority 2016, dated 2019)
